Laboratory results from publication PMC9090738, “An anti-diabetic drug targets NEET (CISD) proteins through destabilization of their [2Fe-2S] clusters” (Communications Biology, 2022).

T1: mNT (mitoNEET) (Homo sapiens, UniProt Q9NZ45)
T1 construct: gene CISD1; soluble cytosolic part, residues 33-108; pET-28a+, E. coli BL21-RIL, Ni-agarose and size exclusion; [2Fe-2S] holo form; homodimer
T1 sequence (Q9NZ45 33-108): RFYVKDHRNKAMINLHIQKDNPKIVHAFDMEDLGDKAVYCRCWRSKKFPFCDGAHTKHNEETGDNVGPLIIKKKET

T2: NAF-1 (Homo sapiens, UniProt Q8N5K1)
T2 construct: gene CISD2; soluble cytosolic part, residues 57-135; pET-28a+, E. coli BL21-RIL, Ni-agarose and size exclusion; [2Fe-2S] holo form; homodimer
T2 sequence (Q8N5K1 57-135): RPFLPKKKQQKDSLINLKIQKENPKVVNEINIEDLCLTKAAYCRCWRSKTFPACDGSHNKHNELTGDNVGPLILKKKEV


Tests used:
mNT (mitoNEET) = target: T1, mNT (mitoNEET); experiment: isothermal titration calorimetry, one-site model; type: binding
NAF-1 = target: T2, NAF-1; experiment: isothermal titration calorimetry, one-site model; type: binding
[1] = target: the molecule itself; experiment: crystal structure; co-crystallised with the small molecule M1 (3.3 mM, 5% DMSO), sitting drop, 32% PEG-3000, 100 mM Tris-HCl pH 8.0, 100 mM NaCl, 20 °C; two molecules (mNT) or two dimers (NAF-1) in the asymmetric unit

Kd (mNT (mitoNEET)) [µM] | Kd (NAF-1) [µM] | Molecule | binding result [1]
5.93 ± 0.53 | 7.2 ± 0.99 | O=C(Nc1scc(C2CCc3ccccc3C2)c1C(=O)O)c1ccccc1 (racemic) [M1] | –
– | – | NAF-1 soluble part (residue 57-135) (domain or fragment, human, UniProt Q8N5K1 57-135, looked up, NAF-1, human NEET protein encoded by CISD2, soluble part, residues 57-135; Each monomer carries a [2Fe-2S] cluster; Crystallised with the small molecule M1; source: Escherichia coli BL21-RIL, purified (Ni-agarose, size exclusion chromatography)) RPFLPKKKQQKDSLINLKIQKENPKVVNEINIEDLCLTKAAYCRCWRSKTFPACDGSHNKHNELTGDNVGPLILKKKEV | binds
– | – | mitoNEET soluble part (residue 33-108) (domain or fragment, human, UniProt Q9NZ45 33-108, looked up, mitoNEET (mNT), human NEET protein, soluble part, residues 33-108; Each monomer carries a [2Fe-2S] cluster; Crystallised with the small molecule M1; also called mNT; source: Escherichia coli BL21-RIL, purified (Ni-agarose, size exclusion chromatography)) RFYVKDHRNKAMINLHIQKDNPKIVHAFDMEDLGDKAVYCRCWRSKKFPFCDGAHTKHNEETGDNVGPLIIKKKET | binds
